From patent US20260183434A1, “NEW SENESCENCE TRACER GENERATION” (Eberhard Karls Universitaet Tuebingen Medizinische Fakultaet, priority 2023, published 2026)
“And” between values parts separate entries of the source, which are not always exact repeats. Equal values may be shown once.

Experiments:
HCT116 = experiment: In vitro tracer uptake (gamma counter) in HCT116 senescence cell model; assay type: cell-based; conditions: 1×10^6 cells, 0.74 MBq tracer, 40 min; for Uptake in % ID per million cells, HCT116 (cntrl): control HCT116 cells; for Uptake in % ID per million cells, HCT116 (sen): senescent HCT116 cells
Experimental: (§1) Cells were cultured in a humidified incubator (Binder, Tuttlingen, Germany) at 37° C. and 5% CO2. Fetal bovine serum (FBS, Sigma of Merck) was heat-inactivated for 30 min at 57° C. for cell culture supplementation. For in vitro uptake experiments, the cells were rinsed with DPBS, harvested with a cell scraper and finally centrifuged. The cell pellet was then washed with DPPS and resuspended in DPBS, before being counted. A suspension of 1×10^6 cells in 1 ml DPBS was incubated with 0.74 MBq of tracer at 37° C. and 5% CO2 for 40 min. After the designated incubation time, the suspension was centrifuged. The cell pellet was transferred into a fresh gamma counter tube (Sarstedt), washed twice with 1 ml DPBS and resuspended in 1 ml DPBS. The uptake was measured with a 2480 Wizard^2 automated gamma counter (Perkin Elmer).

Amp19 tumors [1] = experiment: Ex vivo autoradiography of Amp19 tumors after tracer administration; assay type: in vivo, mice; conditions: cx-treated (senescent) vs non-senescent control Amp19 tumors, FIG. 5
Experimental: (§2) Animal procedures were approved by the local authorities (Regierungspraesidium Tuebingen, Tuebingen, Germany) and conducted according to the German Animal Welfare Act. The mice used were between 6 and 7 weeks of age. Tumors were implanted by injecting 0.5×10^6 cells s.c. into the right flank of SCID beige mice. When most tumors reached 100 mm^3 (˜3 weeks post inoculation), the animals were randomized into two groups. The groups received 25 mg/kg/d CX-5461 (AdooQ BioScience, Irvine, CA, USA) or vehicle [50 mM monosodium phosphate (Sigma of Merck KGaA, Darmstadt, Germany), pH 4.5]i.p. for five consecutive days.
For autoradiography, the tumors were embedded in the optimal cutting temperature compound (Tissue-Tek® O.C.T., Sakura, Alphen aan den Rijn, Netherlands) and frozen at −20° C. in the cryotome (Leica, Wetzlar, Germany). Cryosections (20 μm) were then attached to microscope slides (SuperFrost® Plus, R. Langenbrinck, Emmendingen, Germany). The slides were exposed overnight to a phosphor screen (Molecular Dynamics of GE Healthcare). The screen was then scanned by the phosphorimager (Storm 840, Amersham of GE Healthcare). The signal intensities of sections were normalized to each other based on decay corrected animal receiving dose with the open-source software ImageJ (National Institute of Health, Bethesda, MD, USA). […]

CT26.CL25 (LacZ+) = experiment: In vitro tracer uptake (gamma counter) in β-galactosidase (LacZ) overexpressing cells; assay type: cell-based; conditions: β-galactosidase (LacZ) overexpression model; 1×10^6 cells, 0.74 MBq tracer, 40 min, 37° C.
Experimental: as §1
(§3) In vitro experiments were performed by uptake quantification in a gamma-counter. In all experiments, 1 million of each of the cell lines were treated with 20 μCi of tracer. After incubation time of 40 minutes, the cells were centrifuged, the supernatant discarded and the cell pellet resuspended in fresh PBS. The samples were then measured in biodistribution tubes in a gamma counter. The tracers were tested first using a β-galactosidase (LacZ) overexpression model of a colon carcinoma cell line (CT26-CL25) and the wild type (CT26) as control (FIG. 2A). Next, the tracers were tested in a senescent cell model: a liver carcinoma cell line (Amp19) treated with ribosomal checkpoint inhibitor (RCI) (FIGS. 2B and 2C).

Amp19 = experiment: In vitro tracer uptake (gamma counter) in Amp19 senescence cell model; assay type: cell-based; conditions: 1×10^6 cells, 0.74 MBq tracer, 40 min; for Uptake in % ID per million cells, Amp19 (cntrl): control Amp19 cells; for Uptake in % ID per million cells, Amp19 (sen): senescent Amp19 cells (treated with RCI)
Experimental: as §1, §3

CT26 = experiment: In vitro tracer uptake (gamma counter) in wild type CT26 control cells; assay type: cell-based; conditions: 1×10^6 cells, 0.74 MBq tracer, 40 min, 37° C.
Experimental: as §1, §3

Amp19 tumors [2] = experiment: Dynamic PET scans of Amp19 tumor bearing mice; assay type: in vivo
Experimental: as §2
Anatomical imaging was conducted on a 7 Tesla small animal MRI scanner with a rat whole body coil and Paravision® software (Bruker, Billerica, MA, USA). The animals were then transferred to the PET scanner without moving the animal to ensure co-registration. The animals received 12±1 MBq tracer (determined by a CRC 15-R dose calibrator) was injected through a tail vein catheter, which was subsequently flushed with 50 μl heparinized saline solution. The transmission scan using an external ^57Co point source was performed for the attenuation correction. […]
The list mode raw file was histogrammed and reconstructed with OSEM3D/SP-MAP algorithm implemented in Inveon Acquisition Workplace. […] The tracer uptake was calculated as the percentage of the injected dose per cubic centimeter (% ID/cc). […]

SMILES | Uptake in % ID per million cells, HCT116 (cntrl) (HCT116) | Uptake in % ID per million cells, HCT116 (sen) (HCT116) | Autoradiography signal accumulation in tumors (Amp19 tumors [1]) | Uptake in % ID per million cells, CT26.CL25 (LacZ+) (CT26.CL25 (LacZ+)) | Uptake in % ID per million cells, Amp19 (cntrl) (Amp19) | Uptake in % ID per million cells, Amp19 (sen) (Amp19) | Uptake in % ID per million cells, CT26 (CT26) | Dynamic uptake in tumors (PET) (Amp19 tumors [2]; CX-treated (senescent) vs untreated control Amp19 tumors, tracer i.v., FIG. 4) | Washout of tumor uptake (dynamic PET) (Amp19 tumors [2]; treated and untreated Amp19 tumors, uptake stable, reaches a maximum and plateaus)
OC[C@H]1O[C@@H](Oc2ccc(N3CCN(CCC[18F])CC3)cc2)[C@H](O)[C@@H](O)[C@H]1O [[^18F]PIPGal] | 0.1219 % ID per million cells | 0.09843 % ID per million cells | High signal accumulation is observed in the cx-treated (senescent) tumors compared to the non-senescent controls | 0.06898 % ID per million cells | 0.3165 % ID per million cells | 0.04018 % ID per million cells | 0.3131 % ID per million cells |  | 
OC[C@H]1O[C@@H](Oc2ccc(NCCC[18F])cc2COc2c(F)c(F)cc(F)c2F)[C@H](O)[C@@H](O)[C@H]1O [[^18F]ADTFPBGal] | 1.564 % ID per million cells | 0.6573 % ID per million cells |  | 4.515 % ID per million cells | 1.085 % ID per million cells | 0.205 % ID per million cells | 1.403 % ID per million cells |  | 
OC[C@H]1O[C@@H](Oc2cc([18F])ccc2COc2c(F)c(F)cc(F)c2F)[C@H](O)[C@@H](O)[C@H]1O [[^18F]TFPBGal] | 4.745 % ID per million cells | 2.761 % ID per million cells |  | 7.514 % ID per million cells | 3.641 % ID per million cells | 0.3992 % ID per million cells | 2.444 % ID per million cells | higher in CX-treated (senescent) tumors compared to untreated controls at all time points | no observable washout effect
O=[N+]([O-])c1ccc(OCc2cc(NCCC[18F])ccc2O[C@@H]2O[C@H](CO)[C@H](O)[C@H](O)[C@H]2O)cc1 [[^18F]NO2BGal] | 0.5052 % ID per million cells | 0.3026 % ID per million cells |  | 0.9792 % ID per million cells | 1.286 % ID per million cells | 0.3245 % ID per million cells | 1.492 % ID per million cells |  | 
OC[C@H]1O[C@@H](Oc2cccnc2[18F])[C@H](O)[C@@H](O)[C@H]1O [[^18F]FPyGal, reference compound] | 0.3438 % ID per million cells | 0.1998 % ID per million cells |  | 0.5769 % ID per million cells and 1.117 % ID per million cells | 0.2657 % ID per million cells | 0.0639 % ID per million cells |  |  | 
